{
  "source": "patent US20140256765A1",
  "about": "“TRANSMUCOSAL DRUG DELIVERY SYSTEM” (priority 2013, published 2014)",
  "origin": "cited, not measured here",
  "key": {"[1]": {"settings": "at a pH of 6.8"}, "[2]": {"settings": "in vivo"}},
  "data": [
    {"compound": "CN1CCCC1c1cccnc1", "note": "(centres unmarked) [nicotine]", "values": [
      {"measurement": "nicotine in the free base form", "setting": "[1]", "value": "about 10%"},
      {"measurement": "time to peak of plasma nicotine levels", "setting": "[2]", "value": "about 10 minutes"}
    ]}
  ]
}
